Experimental data reported in ChEMBL document CHEMBL3045771, “Structure-Activity Relationships of Enantiomers of the Azole Fungicide Ipconazole and Its Related Compounds” (1998).
Converted amounts (≈) assume the structure as drawn.

Legend:
Type in all cases: functional
Bipolaris oryzae = assay: Antifungal activity against Bipolaris oryzae on potato sucrose agar medium at 28 or 20 degC for 2 or 3 days
Cercospora beticola = assay: Antifungal activity against Cercospora beticola on potato sucrose agar medium at 28 or 20 degC for 2 or 3 days
[1] = test system: Colletotrichum gloeosporioides; assay: Antifungal activity against Glomerella cingulata on potato sucrose agar medium at 28 or 20 degC for 2 or 3 days
Cucumis sativus = assay: Inhibition of Cucumis sativus (cucumber) growth assessed as stem length of first leaf of seedlings measured as growth rate at 125 ug/ml for 24 hr relative to control; parameters: scale not given: the % may be the effect or the level left
Alternaria mali = assay: Antifungal activity against Alternaria mali on potato sucrose agar medium at 28 or 20 degC for 2 or 3 days
Fusarium fujikuroi = assay: Antifungal activity against Fusarium fujikuroi on potato sucrose agar medium at 28 or 20 degC for 2 or 3 days
Pyricularia oryzae = assay: Antifungal activity against Magnaporthe oryzae on potato sucrose agar medium at 28 or 20 degC for 2 or 3 days
Sclerotinia sclerotiorum = assay: Antifungal activity against Sclerotinia sclerotiorum on potato sucrose agar medium at 28 or 20 degC for 2 or 3 days
Rhizoctonia solani = assay: Antifungal activity against Rhizoctonia solani on potato sucrose agar medium at 28 or 20 degC for 2 or 3 days
Triticum aestivum = assay: Inhibition of Triticum aestivum (wheat) Nourin 64 growth assessed as first leaf sheath length of seedlings measured as growth rate at 125 ug/ml for 24 hr relative to control; parameters: scale not given: the % may be the effect or the level left
Monilinia fructicola = assay: Antifungal activity against Monilinia fructicola on potato sucrose agar medium at 28 or 20 degC for 2 or 3 days
Colletotrichum lagenaria = assay: Antifungal activity against Colletotrichum lagenaria on potato sucrose agar medium at 28 or 20 degC for 2 or 3 days
Botrytis cinerea = assay: Antifungal activity against Botryotinia fuckeliana on potato sucrose agar medium at 28 or 20 degC for 2 or 3 days
[2] = test system: Fusarium oxysporum f. sp. cucumerinum; assay: Antifungal activity against Fusarium oxysporum f. sp. cucumerinum on potato sucrose agar medium at 28 or 20 degC for 2 or 3 days

Row | Structure (SMILES) | MIC (Bipolaris oryzae) [µg/mL] | MIC (Cercospora beticola) [µg/mL] | MIC [1] [µg/mL] | Activity (Cucumis sativus) [%] | MIC (Alternaria mali) [µg/mL] | MIC (Fusarium fujikuroi) [µg/mL] | MIC (Pyricularia oryzae) [µg/mL] | MIC (Sclerotinia sclerotiorum) [µg/mL] | MIC (Rhizoctonia solani) [µg/mL] | Activity (Triticum aestivum) [%] | MIC (Monilinia fructicola) [µg/mL] | MIC (Colletotrichum lagenaria) [µg/mL] | MIC (Botrytis cinerea) [µg/mL] | MIC [2] [µg/mL]
1 | O[C@]1(Cn2cncn2)CCC[C@@H]1Cc1ccc(Cl)cc1 | 25 (≈ 85.7 µM) | > 100 | 25 (≈ 85.7 µM) | 80 | > 100 | 13 (≈ 44.6 µM) | 6.3 (≈ 21.6 µM) | 13 (≈ 44.6 µM) | > 100 | 41 | < 0.2 | > 100 | 3.1 (≈ 10.6 µM) | > 100
2 | CC(C)[C@@H]1CC[C@H](Cc2ccc(Cl)cc2)[C@@]1(O)Cn1cncn1 | 13 (≈ 38.9 µM) | 25 (≈ 74.9 µM) | 1.6 (≈ 4.79 µM) | 118 | 6.3 (≈ 18.9 µM) | 0.2 (≈ 0.599 µM) | 3.1 (≈ 9.29 µM) | < 0.2 | 13 (≈ 38.9 µM) | 105 | < 0.2 | 0.8 (≈ 2.4 µM) | 0.2 (≈ 0.599 µM) | 3.1 (≈ 9.29 µM)
3 | CC(C)[C@H]1CC[C@H](Cc2ccc(Cl)cc2)[C@@]1(O)Cn1cncn1 | 13 (≈ 38.9 µM) | 13 (≈ 38.9 µM) | 0.4 (≈ 1.2 µM) | 113 | 3.1 (≈ 9.29 µM) | 0.2 (≈ 0.599 µM) | 1.6 (≈ 4.79 µM) | 0.8 (≈ 2.4 µM) | 100 (≈ 300 µM) | 96 | < 0.2 | < 0.2 | 0.4 (≈ 1.2 µM) | 0.4 (≈ 1.2 µM)
4 | CC(C)[C@H]1CC[C@@H](Cc2ccc(Cl)cc2)[C@]1(O)Cn1cncn1 | 50 (≈ 150 µM) | > 100 | 25 (≈ 74.9 µM) | 117 | > 100 | > 100 | 100 (≈ 300 µM) | 50 (≈ 150 µM) | 100 (≈ 300 µM) | 109 | < 0.2 | > 100 | 25 (≈ 74.9 µM) | > 100
5 | CC(C)[C@@H]1CC[C@@H](Cc2ccc(Cl)cc2)[C@]1(O)Cn1cncn1 | 50 (≈ 150 µM) | > 100 | 25 (≈ 74.9 µM) | 104 | > 100 | > 100 | 13 (≈ 38.9 µM) | > 100 | > 100 | 92 | < 0.2 | 50 (≈ 150 µM) | 25 (≈ 74.9 µM) | > 100
6 | O[C@@]1(Cn2cncn2)CCC[C@H]1Cc1ccc(Cl)cc1 | > 100 | > 100 | > 100 | 90 | > 100 | > 100 | 100 (≈ 343 µM) | > 100 | > 100 | 94 | 13 (≈ 44.6 µM) | > 100 | > 100 | > 100
7 | C[C@H]1CC[C@@H](Cc2ccc(Cl)cc2)[C@]1(O)Cn1cncn1 | > 100 | > 100 | > 100 | 97 | > 100 | > 100 | 50 (≈ 164 µM) | > 100 | > 100 | 92 | 13 (≈ 42.5 µM) | > 100 | 100 (≈ 327 µM) | > 100
8 | C[C@@H]1CC[C@H](Cc2ccc(Cl)cc2)[C@@]1(O)Cn1cncn1 | 25 (≈ 81.8 µM) | > 100 | 13 (≈ 42.5 µM) | 43 | > 100 | 3.1 (≈ 10.1 µM) | 3.1 (≈ 10.1 µM) | 3.1 (≈ 10.1 µM) | > 100 | 38 | < 0.2 | 100 (≈ 327 µM) | 3.1 (≈ 10.1 µM) | > 100
9 | CC[C@H]1CC[C@@H](Cc2ccc(Cl)cc2)[C@]1(O)Cn1cncn1 | 50 (≈ 156 µM) | > 100 | 25 (≈ 78.2 µM) | 98 | > 100 | > 100 | 25 (≈ 78.2 µM) | 100 (≈ 313 µM) | 100 (≈ 313 µM) | 77 | 1.6 (≈ 5 µM) | 50 (≈ 156 µM) | 25 (≈ 78.2 µM) | > 100
